Measured values from PubChem BioAssay AID330 (DTP/NCI, 2004).
Values joined by “and” are separate entries in the source; they are usually repeats but may differ in a detail not shown here. Equal values may be shown once. Toxic doses and inconclusive results are not listed.

Tested on: P388 leukemia ip, CD2F1 mice, survival T/C
Test: NCI In Vivo Anticancer Drug Screen. Data for tumor model P388 Leukemia (intraperitoneal) in CD2F1 (CDF1) mice
Conditions: endpoint: median survival time, higher = longer survival
In short: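 Mice carrying the transplanted tumor received test compound or vehicle. Survival was recorded in each group, and the value is the treated-group measurement divided by that of the vehicle-treated control group.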

[1] = dose: 50.0 mg/kg/injection, schedule: Q01DX009 (ip), vehicle: saline with Tween-80
[2] = dose: 100.0 mg/kg/injection, schedule: Q01DX009 (ip), vehicle: saline with Tween-80
[3] = dose: 200.0 mg/kg/injection, schedule: Q01DX009 (ip), vehicle: saline with Tween-80
[4] = dose: 50.0 mg/kg/injection, schedule: Q01DX005 (ip), vehicle: saline
[5] = dose: 100.0 mg/kg/injection, schedule: Q01DX005 (ip), vehicle: saline
[6] = dose: 50.0 mg/kg/injection, schedule: Q01DX009 (ip), vehicle: saline
[7] = dose: 100.0 mg/kg/injection, schedule: Q01DX001 (ip), vehicle: saline with Tween-80
[8] = dose: 200.0 mg/kg/injection, schedule: Q01DX001 (ip), vehicle: saline with Tween-80
[9] = dose: 400.0 mg/kg/injection, schedule: Q01DX001 (ip), vehicle: saline with Tween-80
[10] = dose: 12.5 mg/kg/injection, schedule: Q01DX009 (ip), vehicle: saline
[11] = dose: 100.0 mg/kg/injection, schedule: Q04DX003 (ip), vehicle: saline with Tween-80
[12] = dose: 200.0 mg/kg/injection, schedule: Q04DX003 (ip), vehicle: saline with Tween-80
[13] = dose: 60.0 mg/kg/injection, schedule: Q01DX005 (ip), vehicle: saline with Tween-80
[14] = dose: 120.0 mg/kg/injection, schedule: Q01DX005 (ip), vehicle: saline with Tween-80
[15] = dose: 240.0 mg/kg/injection, schedule: Q01DX005 (ip), vehicle: saline with Tween-80
[16] = dose: 50.0 mg/kg/injection, schedule: Q01DX005 (ip), vehicle: saline with Tween-80
[17] = dose: 100.0 mg/kg/injection, schedule: Q01DX005 (ip), vehicle: saline with Tween-80
[18] = dose: 200.0 mg/kg/injection, schedule: Q01DX005 (ip), vehicle: saline with Tween-80
[19] = dose: 25.0 mg/kg/injection, schedule: Q01DX009 (ip), vehicle: saline with Tween-80

Nc1ccc(NCCC2CCCN3CCCCC23)c2c(=O)c3ccccc3sc12 (stereo unspecified)
T/C (dose: 32.5 mg/kg/injection, schedule: Q01DX005 (ip), vehicle: saline with Tween-80): 100 % of control
T/C (dose: 65.0 mg/kg/injection, schedule: Q01DX005 (ip), vehicle: saline with Tween-80): 100 % of control
T/C (dose: 80.0 mg/kg/injection, schedule: Q01DX005 (ip), vehicle: saline with Tween-80): 95 % of control
T/C (dose: 130.0 mg/kg/injection, schedule: Q01DX005 (ip), vehicle: saline with Tween-80): 101 % of control
T/C (dose: 160.0 mg/kg/injection, schedule: Q01DX005 (ip), vehicle: saline with Tween-80): 104 % of control
T/C (dose: 260.0 mg/kg/injection, schedule: Q01DX005 (ip), vehicle: saline with Tween-80): 109 % of control

O=C(O)CCC1NC(=O)NC1=O (stereo unspecified)
T/C (dose: 50.0 mg/kg/injection, schedule: Q01DX001 (ip), vehicle: saline): 100 % of control
T/C (dose: 100.0 mg/kg/injection, schedule: Q01DX001 (ip), vehicle: saline): 103 % of control
T/C (dose: 200.0 mg/kg/injection, schedule: Q01DX001 (ip), vehicle: saline): 104 % of control
T/C (dose: 400.0 mg/kg/injection, schedule: Q01DX001 (ip), vehicle: saline): 94 % of control

O=C1CCCC12CCCC2=O
T/C [1]: 103 % of control
T/C [2]: 100 % of control
T/C [3]: 109 % of control

COc1cc(NCCN(C)C(C)Cc2ccccc2)c2ncccc2c1 (stereo unspecified)
T/C [4]: 106 % of control
T/C [5]: 104 % of control

CC(C)(C)c1cc(C#CC#Cc2cc(C(C)(C)C)cc(C(C)(C)C)c2)cc(C(C)(C)C)c1
T/C (dose: 25.0 mg/kg/injection, schedule: Q01DX005 (ip), vehicle: Klucel (hydroxypropylcellulose) (HPC)): 86 % of control
T/C (dose: 50.0 mg/kg/injection, schedule: Q01DX005 (ip), vehicle: Klucel (hydroxypropylcellulose) (HPC)): 86 % of control

CN(C(=O)C(Cl)Cl)c1ccc(-c2csc(-c3ccccc3)n2)cc1
T/C (dose: 100.0 mg/kg/injection, schedule: Q04DX003 (ip), vehicle: Klucel (hydroxypropylcellulose) (HPC)): 100 % of control
T/C (dose: 200.0 mg/kg/injection, schedule: Q04DX003 (ip), vehicle: Klucel (hydroxypropylcellulose) (HPC)): 97 % of control
T/C (dose: 400.0 mg/kg/injection, schedule: Q04DX003 (ip), vehicle: Klucel (hydroxypropylcellulose) (HPC)): 91 % of control

COc1ccc(C(O)C/[N+]([O-])=C/c2ncc([N+](=O)[O-])n2C)cc1 (stereo unspecified)
T/C [6]: 97 % of control
T/C (dose: 100.0 mg/kg/injection, schedule: Q01DX009 (ip), vehicle: saline): 100 % of control
T/C (dose: 200.0 mg/kg/injection, schedule: Q01DX009 (ip), vehicle: saline): 106 % of control

CCCNc1nc2c(s1)c1c(O)c3c(O)c(C)c4c(c32)C(=O)C(C)(O/C=C\C(OC)C(C)C(OC(C)=O)C(C)C(O)C(C)C(O)C(C)/C=C/C=C(/C)C(=O)N1)O4 (stereo unspecified)
T/C (dose: 25.0 mg/kg/injection, schedule: Q01DX009 (ip), vehicle: Klucel (hydroxypropylcellulose) (HPC)): 92 % of control
T/C (dose: 50.0 mg/kg/injection, schedule: Q01DX009 (ip), vehicle: Klucel (hydroxypropylcellulose) (HPC)): 107 % of control
T/C (dose: 100.0 mg/kg/injection, schedule: Q01DX009 (ip), vehicle: Klucel (hydroxypropylcellulose) (HPC)): 99 % of control
T/C (dose: 200.0 mg/kg/injection, schedule: Q01DX009 (ip), vehicle: Klucel (hydroxypropylcellulose) (HPC)): 100 % of control

CCc1nc(-c2ccccc2)nc2c1nc(C(C)C)n2Nc1ccccc1
T/C [7]: 104 % of control
T/C [8]: 93 % of control
T/C [9]: 89 % of control

COc1ccc(-n2c(C)c(COC(C)=O)c(COC(C)=O)c2C)cc1
T/C [10]: 157 % of control and 163 % of control

Cc1ccc2c3c(c(O)c(C(C)(C)O)cc13)OC2=O
T/C (dose: 15.63 mg/kg/injection, schedule: Q01DX005 (ip), vehicle: Klucel (hydroxypropylcellulose) (HPC)): 91 % of control
T/C (dose: 31.25 mg/kg/injection, schedule: Q01DX005 (ip), vehicle: Klucel (hydroxypropylcellulose) (HPC)): 90 % of control
T/C (dose: 62.5 mg/kg/injection, schedule: Q01DX005 (ip), vehicle: Klucel (hydroxypropylcellulose) (HPC)): 93 % of control
T/C (dose: 125.0 mg/kg/injection, schedule: Q01DX005 (ip), vehicle: Klucel (hydroxypropylcellulose) (HPC)): 93 % of control
T/C (dose: 250.0 mg/kg/injection, schedule: Q01DX005 (ip), vehicle: Klucel (hydroxypropylcellulose) (HPC)): 93 % of control

CCCc1c2c(c(CCC)c3c1-c1cccc4cccc-3c14)-c1ccccc1C2=O
T/C [11]: 105 % of control
T/C [12]: 95 % of control

Cc1c(-c2ccccc2)nc(N(C)C)oc1=O
T/C [13]: 105 % of control
T/C [14]: 101 % of control
T/C [15]: 100 % of control

CN(C)CC1C2CCC(C2)C1O (stereo unspecified)
T/C [16]: 98 % of control
T/C [17]: 97 % of control
T/C [18]: 99 % of control

CC(C)=CCSC(N)N
T/C (dose: 7.5 mg/kg/injection, schedule: Q01DX005 (ip), vehicle: saline): 99 % of control
T/C (dose: 15.0 mg/kg/injection, schedule: Q01DX005 (ip), vehicle: saline): 99 % of control
T/C (dose: 30.0 mg/kg/injection, schedule: Q01DX005 (ip), vehicle: saline): 99 % of control
T/C (dose: 60.0 mg/kg/injection, schedule: Q01DX005 (ip), vehicle: saline): 101 % of control

C1COCCOCCOCCOCCO1.[Cl][Sn]([Cl])([Cl])[Cl]
T/C (dose: 60.0 mg/kg/injection, schedule: Q01DX005 (ip), vehicle: Klucel (hydroxypropylcellulose) (HPC)): 100 % of control
T/C (dose: 120.0 mg/kg/injection, schedule: Q01DX005 (ip), vehicle: Klucel (hydroxypropylcellulose) (HPC)): 99 % of control

CCOC(=O)/C(C#N)=C\c1c(OC(C)=O)cn2c(C)cccc12
T/C [7]: 104 % of control
T/C [8]: 98 % of control
T/C [9]: 98 % of control

CC1(C)CC(NC(=O)C(C)(C)Oc2ccc(Cl)cc2)CC(C)(C)N1
T/C [16]: 107 % of control
T/C [17]: 100 % of control
T/C [18]: 98 % of control

Cc1ccc2oc(-c3ccccc3)c(O)c(=O)c2c1
T/C [11]: 100 % of control
T/C [12]: 108 % of control
T/C (dose: 400.0 mg/kg/injection, schedule: Q04DX003 (ip), vehicle: saline with Tween-80): 95 % of control

CN1CCN(Cc2ncc(C3CCCCC3)c(=O)[nH]2)CC1
T/C [19]: 100 % of control
T/C [1]: 102 % of control
T/C [2]: 97 % of control

O=C1CN(CCCN2CCOCC2)CC(=O)N2CCCCN12
T/C [4]: 100 % of control
T/C [5]: 105 % of control
T/C (dose: 200.0 mg/kg/injection, schedule: Q01DX005 (ip), vehicle: saline): 102 % of control

CN1CCN(c2ccc3nc(-c4ccc5nc(-c6ccc(O)cc6)[nH]c5c4)[nH]c3c2)CC1
T/C [6]: 153 % of control

O=C(Oc1c(Br)c(N(C(=O)c2ccccc2)c2ccccc2)c(OC(=O)c2ccccc2)c(Br)c1N(C(=O)c1ccccc1)c1ccccc1)c1ccccc1
T/C [16]: 91 % of control
T/C [17]: 95 % of control
T/C [18]: 89 % of control

CP1(=O)CC(=O)CCCCC(=O)C1
T/C (dose: 6.25 mg/kg/injection, schedule: Q01DX009 (ip), vehicle: saline): 104 % of control
T/C [10]: 114 % of control
T/C (dose: 25.0 mg/kg/injection, schedule: Q01DX009 (ip), vehicle: saline): 104 % of control
T/C [2]: 100 % of control
T/C [3]: 98 % of control

CNC(=O)Oc1ccc2c(c1)[C@]1(C)CCN(C)O[C@@H]1N2C
T/C (dose: 0.79 mg/kg/injection, schedule: Q01DX005 (ip), vehicle: Klucel (hydroxypropylcellulose) (HPC)): 100 % of control
T/C (dose: 1.56 mg/kg/injection, schedule: Q01DX005 (ip), vehicle: Klucel (hydroxypropylcellulose) (HPC)): 100 % of control

COc1cc(/C=C/[N+](=O)[O-])c(OC)cc1Br
T/C [19]: 122 % of control

N#CC(C(=O)CCC(=O)C(C#N)c1c(Cl)cccc1Cl)c1c(Cl)cccc1Cl (stereo unspecified)
T/C [16]: 100 % of control
T/C [17]: 98 % of control
T/C [18]: 98 % of control

O=C(O)/C(=C/c1cccs1)c1ccc(F)cc1
T/C [13]: 110 % of control
T/C [14]: 102 % of control
T/C [15]: 104 % of control

COC(=O)c1nn(-c2ccccc2)c2nc3ccccc3c-2c1C(=O)OC
T/C (dose: 100.0 mg/kg/injection, schedule: Q04DX002 (ip), vehicle: saline with Tween-80): 108 % of control
T/C (dose: 200.0 mg/kg/injection, schedule: Q04DX002 (ip), vehicle: saline with Tween-80): 108 % of control
T/C (dose: 400.0 mg/kg/injection, schedule: Q04DX002 (ip), vehicle: saline with Tween-80): 97 % of control
